{"source": "patent US7842703B2", "about": "“Substituted benzofused derivatives and their use as vanilloid receptor ligands” (Glenmark Pharmaceuticals S.A., priority 2005, dated 2010)", "target": "T1, Human TRPV1 expressing CHO cells (Homo sapiens, UniProt Q8NER1)", "T1 construct": "expressed in transfected cells; host or cells: CHO cells under G-418 selection", "T1 sequence (Q8NER1 whole entry)": "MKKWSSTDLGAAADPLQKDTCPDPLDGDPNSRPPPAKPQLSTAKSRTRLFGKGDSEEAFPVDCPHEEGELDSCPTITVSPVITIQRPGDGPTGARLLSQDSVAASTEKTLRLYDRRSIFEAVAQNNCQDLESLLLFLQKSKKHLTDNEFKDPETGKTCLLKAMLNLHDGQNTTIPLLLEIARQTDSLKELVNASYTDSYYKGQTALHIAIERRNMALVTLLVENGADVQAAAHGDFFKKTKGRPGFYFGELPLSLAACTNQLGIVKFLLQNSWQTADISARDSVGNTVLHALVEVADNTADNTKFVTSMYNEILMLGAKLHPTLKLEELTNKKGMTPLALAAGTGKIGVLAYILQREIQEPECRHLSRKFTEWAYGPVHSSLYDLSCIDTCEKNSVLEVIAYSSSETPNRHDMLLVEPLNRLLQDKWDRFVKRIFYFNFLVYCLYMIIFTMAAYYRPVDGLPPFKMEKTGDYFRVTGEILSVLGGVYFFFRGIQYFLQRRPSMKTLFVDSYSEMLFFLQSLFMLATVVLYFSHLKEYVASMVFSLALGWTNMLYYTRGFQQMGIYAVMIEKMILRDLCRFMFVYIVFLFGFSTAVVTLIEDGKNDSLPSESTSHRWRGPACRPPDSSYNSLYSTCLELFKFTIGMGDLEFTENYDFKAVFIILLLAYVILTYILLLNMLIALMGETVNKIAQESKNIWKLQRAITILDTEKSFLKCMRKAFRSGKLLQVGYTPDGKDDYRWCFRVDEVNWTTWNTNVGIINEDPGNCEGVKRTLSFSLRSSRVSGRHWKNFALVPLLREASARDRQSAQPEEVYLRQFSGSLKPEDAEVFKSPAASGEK", "test": "Screening for TRPV1 antagonist using the 45Calcium uptake assay (inhibition of capsaicin induced cellular uptake of radioactive calcium)", "type": "cell-based", "conditions": "for inhibition at 1 µM: CHO; for inhibition at 1 µM / % inhibition of ^45Ca uptake at 1 μM: test compound 1 μM, capsaicin 250 nM, relative to maximum ^45Ca uptake induced by capsaicin alone; for IC50: inhibition of capsaicin (250 nM) induced ^45Ca uptake", "procedure": "The inhibition of TRPV1 receptor activation was followed as inhibition of capsaicin induced cellular uptake of radioactive calcium which represents calcium influx exclusively through the plasma membrane associated TRPV1 receptor.\nStock solution of capsaicin was made in ethanol and test compounds in 100% DMSO. Stock solutions were diluted to appropriate final concentrations in assay buffer keeping the final DMSO concentration between 0.1% and 0.55%.\n^45Ca was used at a final concentration of 2.5 μCi/ml (^45Ca, ICN).\nAssay buffer was composed of F-12 DMEM medium supplemented with 1.8 mM CaCl2 (final conc.) and 0.1% Bovine serum albumin. (BSA from SIGMA)\nWash buffer was tyrodes solution supplemented with 0.1% BSA and 1.8 mM calcium. Lysis buffer contained 50 mM Tris-HCl, pH7.5, 150 mM NaCl, 1% Triton X-100, 0.5% deoxycholate and 0.1% Sodium dodicyl sulphate (SDS, SIGMA)\nAssay was carried out with some modifications the of procedure as described by Toth et. al. (See Toth A et. al., Life Sciences 73 p 487-498, 2003). Human TRPV1 expressing CHO cells were grown in F-12 DMEM (Dulbecco's modified Eagle's medium—GIBCO) medium with 10% FBS (fetal bovine serum Hyclone), 1% penicillin-streptomycin solution, 400 μg/ml of G-418. Cells were seeded 48 h prior to the assay in 96 well plates so as to get ˜50,000 cells per well on the day of experiment. Plates were incubated at 37° C. in the presence of 5% CO2. Cells were then washed twice with 200 μl of assay buffer and re-suspended in 144 μl of the same. Assay was carried out at 30° C. in total volume of 200 μl. Test compounds were added to the cells fifteen minutes before addition of capsaicin, Final concentration of capsaicin in the assay was 250 nM. After 5 minutes of agonist treatment, drug was washed out and wells rinsed with 300 μl of ice cold wash buffer 3×. The cells were lysed in 50 μl lysis buffer for 20 min. 40 μl of cell lysate was mixed with 150 μl of Microscint PS, left overnight for equilibration. Radioactivity in samples was measured as counts per minute (cpm) using Packard Biosciences Top Count. The drug/vehicle/capsaicin treated ^45Ca uptake values were normalized over basal ^45Ca value. Data was expressed as % inhibition of ^45Ca uptake by test compound with respect to maximum ^45Ca uptake induced by capsaicin alone. IC50 value was calculated from dose response curve by nonlinear regression analysis using GraphPadPRISM software.", "data": [{"smiles": "O=C(Nc1cccc2cnccc12)NC1CC2(CCC2)Oc2ccc(Br)cc21", "note": "(racemic) [Example 65, (±) 1-(6-Bromo-3,4-dihydro-spiro[2H-1-benzopyran-2,1′-cyclobutane]-4-yl)-3-(isoquinolin-5-yl)urea]", "values": [{"measurement": "inhibition at 1 µM", "result": "> 50", "unit": "%"}, {"measurement": "IC50", "result": 404, "unit": "nM"}]}, {"smiles": "O=C(Nc1csc2cnccc12)NC1CC2(CCC2)Oc2ccccc21", "note": "(racemic) [Example 20, (±) 1-(3,4-Dihydro-spiro[2H-1-benzopyran-2,1′-cyclobutane]-4-yl)-3-(thieno[2,3-c]pyridine-3-ylurea]", "values": [{"measurement": "% inhibition of ^45Ca uptake at 1 μM", "result": "<50", "unit": "%"}]}, {"smiles": "O=C(Nc1cccc2cnccc12)NC1CC2(CCC2)Oc2ccc(F)cc21", "note": "(racemic) [Example 42, (±) 1-(3,4-Dihydro-6-fluoro-spiro[2H-1-benzopyran-2,1′-cyclobutane]-4-yl)-3-(isoquinolin-5-yl)urea]", "values": [{"measurement": "inhibition at 1 µM", "result": "> 50", "unit": "%"}, {"measurement": "IC50", "result": 11.9, "unit": "nM"}]}, {"smiles": "O=C(Nc1cccc2cnccc12)NC1CC2(CCC2)Oc2ccccc21", "note": "(racemic) [Example 3, (±) 1-(3,4-Dihydro-spiro-[2H-1-benzopyran-2,1′-cyclobutan]-4-yl)-3-(isoquinolin-5-ylurea]", "values": [{"measurement": "IC50", "result": 2.89, "unit": "nM"}, {"measurement": "% inhibition of ^45Ca uptake at 1 μM", "result": 100, "unit": "%"}]}, {"smiles": "O=C(NC1CC2(CCC2)Oc2ccccc21)N1CCCCC1", "note": "(stereo not shown) [Example 39, N-3,4-dihydrospiro[chromene-2,1′-cyclobutan]-4-ylpiperidine-1-carboxamide]", "values": [{"measurement": "inhibition at 1 µM", "result": 0, "unit": "%"}]}, {"smiles": "Cc1cc2c(NC(=O)NC3CC4(CCC4)Oc4cc(OC(F)F)ccc43)cccc2cn1", "note": "(racemic) [Example 56, (±) 1-(7-Difluoromethoxy-3,4-dihydro-spiro[2H-1-benzopyran-2,1′-cyclobutane]-4-yl)-3-(3-methylisoquinolin-5-yl)urea]", "values": [{"measurement": "inhibition at 1 µM", "result": "> 50", "unit": "%"}, {"measurement": "IC50", "result": 14.4, "unit": "nM"}]}, {"smiles": "O=C(Nc1cccc2c[n+]([O-])ccc12)NC1CC2(CCC2)Oc2ccccc21", "note": "(single isomer, unassigned; (+)) [Example 10, (+) 1-(3,4-Dihydro-spiro[2H-1-benzopyran-2,1′-cyclobutane]-4-yl)-3-(2-oxoisoquinolin-5-yl)urea]", "values": [{"measurement": "inhibition at 1 µM", "result": "> 50", "unit": "%"}, {"measurement": "IC50", "result": 104, "unit": "nM"}]}, {"smiles": "O=C(Nc1ccc(Cl)c2cnccc12)NC1CC2(CCC2)Oc2ccc(Cl)cc21", "note": "(racemic) [Example 70, (±) 1-(6-Chloro-3,4-dihydro-spiro[2H-1-benzopyran-2,1′-cyclobutane]-4-yl)-3-(8-chloroisoquinolin-5-yl)urea]", "values": [{"measurement": "inhibition at 1 µM", "result": "< 50", "unit": "%"}]}, {"smiles": "Cc1cc2c(NC(=O)NC3CC4(CCC4)Oc4ccc(Cl)cc43)cccc2cn1", "note": "(racemic) [Example 73, (±) 1-(6-Chloro-3,4-dihydro-spiro[2H-1-benzopyran-2,1′-cyclobutane]-4-yl)-3-(3-methylisoquinolin-5-yl)urea]", "values": [{"measurement": "inhibition at 1 µM", "result": "> 50", "unit": "%"}, {"measurement": "IC50", "result": 1260, "unit": "nM"}]}, {"smiles": "CNS(=O)(=O)c1ccc2c(c1)C(NC(=O)Nc1cccc3cnccc13)CC1(CCC1)O2", "note": "(racemic) [Example 55, (±) 1-(3,4-Dihydro-6-methylaminosulfonyl-spiro[2H-1-benzopyran-2,1′-cyclobutane]-4-yl)-3-(isoquinolin-5-yl)urea]", "values": [{"measurement": "inhibition at 1 µM", "result": "< 50", "unit": "%"}]}, {"smiles": "O=C(Nc1cccc2cnccc12)NC1CC2(CCC2)Oc2cc(Cl)c(Cl)cc21", "note": "(racemic) [Example 68, (±) 1-(6,7-Dichloro-3,4-dihydro-spiro[2H-1-benzopyran-2,1′-cyclobutane]-4-yl)-3-(isoquinolin-5-yl)urea]", "values": [{"measurement": "inhibition at 1 µM", "result": "> 50", "unit": "%"}, {"measurement": "IC50", "result": 222, "unit": "nM"}]}, {"smiles": "O=C(Nc1cccc2cnccc12)NC1CC2(CCC2)Oc2cc(Cl)ccc21", "note": "(single isomer, unassigned; (-)) [Example 76, (−) 1-(7-Chloro-3,4-dihydro-spiro[2H-1-benzopyran-2,1′-cyclobutane]-4-yl)-3-(isoquinolin-5-yl)urea]", "values": [{"measurement": "inhibition at 1 µM", "result": "< 50", "unit": "%"}]}, {"smiles": "O=C(Nc1ccc(Cl)c2cnccc12)NC1CC2(CCC2)Oc2ccc(F)cc21", "note": "(racemic) [Example 71, (±) 1-(6-Fluoro-3,4-dihydro-spiro[2H-1-benzopyran-2,1′-cyclobutane]-4-yl)-3-(8-chloroisoquinolin-5-yl)urea]", "values": [{"measurement": "inhibition at 1 µM", "result": "> 50", "unit": "%"}, {"measurement": "IC50", "result": 591, "unit": "nM"}]}, {"smiles": "COc1ccc2c(c1)OC1(CCC1)CC2NC(=O)Nc1cccc2cnccc12", "note": "(racemic) [Example 47, (±) 1-(3,4-Dihydro-7-methoxy-spiro[2H-1-benzopyran-2,1′-cyclobutane]-4-yl)-3-(isoquinolin-5-yl)urea]", "values": [{"measurement": "inhibition at 1 µM", "result": "> 50", "unit": "%"}, {"measurement": "IC50", "result": 0.21, "unit": "nM"}]}, {"smiles": "N#Cc1cccc2c1OC1(CCC1)CC2NC(=O)Nc1cccc2cnccc12", "note": "(racemic) [Example 58, (±) 1-(8-Cyano-3,4-dihydro-spiro[2H-1-benzopyran-2,1′-cyclobutane]-4-yl)-3-(isoquinolin-5-yl)urea]", "values": [{"measurement": "inhibition at 1 µM", "result": "< 50", "unit": "%"}]}, {"smiles": "O=C(Nc1cccc2ccncc12)NC1CC2(CCC2)Oc2ccccc21", "note": "(racemic) [Example 27, (±) 1-(3,4-Dihydrospiro[2H-1-benzopyran-2,1′-cyclobutan]-4-yl)-3-(isoquinolin-8-yl)urea]", "values": [{"measurement": "inhibition at 1 µM", "result": 46.9, "unit": "%"}]}, {"smiles": "O=C(Nc1cccc2cnccc12)NC1CC2(CCC2)Oc2ccccc21", "note": "(single isomer, unassigned; (+)) [Example 4, (+) 1-(3,4-Dihydro-spiro-[2H-1-benzopyran-2,1′-cyclobutan]-4-yl)-3-(isoquinolin-5-yl)urea]", "values": [{"measurement": "inhibition at 1 µM", "result": "> 50", "unit": "%"}, {"measurement": "IC50", "result": 7.8, "unit": "nM"}]}, {"smiles": "Cc1ccc2c(c1)OC1(CCC1)CC2NC(=O)Nc1cccc2cnccc12", "note": "(racemic) [Example 41, (±) 1-(3,4-Dihydro-7-methyl-spiro[2H-1-benzopyran-2,1′-cyclobutane]-4-yl-3-(isoquinolin-5-yl)urea]", "values": [{"measurement": "inhibition at 1 µM", "result": "> 50", "unit": "%"}, {"measurement": "IC50", "result": 0.48, "unit": "nM"}]}, {"smiles": "O=C(NCc1ccc(C(F)(F)F)cc1)N[C@H]1CC2(CCC2)Oc2ccccc21", "note": "[Example 38, 1-((S)-3,4-Dihydrospiro[2H-1-benzopyran-2,1′-cyclobutan]-4-yl)-3-(4-trifluoromethylbenzyl)urea]", "values": [{"measurement": "inhibition at 1 µM", "result": 10.9, "unit": "%"}]}, {"smiles": "O=C(Nc1cccc2nsnc12)NC1CC2(CCC2)Oc2ccccc21", "note": "(stereo not shown) [Example 29, N-2,1,3-benzothiadiazol-4-yl-N′-3,3′,4,4′-tetrahydro-2′H-spiro[chromene-2,1′-cyclobutan]-4-ylurea (N-2,1,3-benzothiadiazol-4-yl-N′-3,4-dihydro-2H-spiro[chromene-2,1′-cyclobutan]-4-ylurea)]", "values": [{"measurement": "% inhibition of ^45Ca uptake at 1 μM", "result": "<50", "unit": "%"}]}, {"smiles": "O=C(Nc1cccc2cnccc12)NC1CC2(CCC2)Oc2cc(OC3CCCC3)ccc21", "note": "(racemic) [Example 53, (±) 1-(7-Cyclopentyloxy-3,4-dihydro-spiro[2H-1-benzopyran-2,1′-cyclobutane]-4-yl)-3-(isoquinolin-5-yl)urea]", "values": [{"measurement": "inhibition at 1 µM", "result": "> 50", "unit": "%"}, {"measurement": "IC50", "result": 15.8, "unit": "nM"}]}, {"smiles": "Cc1cc2c(NC(=O)NC3CC4(CCC4)Oc4ccc(F)cc43)cccc2cn1", "note": "(racemic) [Example 72, (±) 1-(3,4-Dihydro-6-fluoro-spiro[2H-1-benzopyran-2,1′-cyclobutane]-4-yl)-3-(3-methylisoquinolin-5-yl)urea]", "values": [{"measurement": "inhibition at 1 µM", "result": "> 50", "unit": "%"}, {"measurement": "IC50", "result": 469, "unit": "nM"}]}, {"smiles": "O=C(Nc1cccc2cnccc12)NC1CC2(CCC2)Oc2ccc(Cl)cc21", "note": "(racemic) [Example 63, (±) 1-(6-Chloro-3,4-dihydro-spiro[2H-1-benzopyran-2,1′-cyclobutane]-4-yl)-3-(isoquinolin-5-yl)urea]", "values": [{"measurement": "inhibition at 1 µM", "result": "> 50", "unit": "%"}, {"measurement": "IC50", "result": 307, "unit": "nM"}]}]}
